Assay results reported in ChEMBL document CHEMBL5523718, “Design, synthesis, molecular modeling, in vitro and in vivo biological evaluation of potent anthranilamide derivatives as dual P-glycoprotein and CYP3A4 inhibitors” (Eur J Med Chem, 2024).
In brackets after ≈: the same amount, converted by molar mass.

How the values were obtained:
[1] = Inhibition of CYP3A4 in mouse liver using luciferin-IPA as substrate microsome preincubated with compound for 10 mins followed by NADPH addition and measured after 5 mins; type: ADME, microsomes
[2] = molecular target: T1, P-gp (ABCB1) (Homo sapiens, UniProt P08183); assay: Inhibition of P-gp in human Caco-2 cells at 0.01 uM in presence of paclitaxel relative to control; type: cell-based; conditions: Caco-2, probe paclitaxel
T1 sequence (P08183 whole entry): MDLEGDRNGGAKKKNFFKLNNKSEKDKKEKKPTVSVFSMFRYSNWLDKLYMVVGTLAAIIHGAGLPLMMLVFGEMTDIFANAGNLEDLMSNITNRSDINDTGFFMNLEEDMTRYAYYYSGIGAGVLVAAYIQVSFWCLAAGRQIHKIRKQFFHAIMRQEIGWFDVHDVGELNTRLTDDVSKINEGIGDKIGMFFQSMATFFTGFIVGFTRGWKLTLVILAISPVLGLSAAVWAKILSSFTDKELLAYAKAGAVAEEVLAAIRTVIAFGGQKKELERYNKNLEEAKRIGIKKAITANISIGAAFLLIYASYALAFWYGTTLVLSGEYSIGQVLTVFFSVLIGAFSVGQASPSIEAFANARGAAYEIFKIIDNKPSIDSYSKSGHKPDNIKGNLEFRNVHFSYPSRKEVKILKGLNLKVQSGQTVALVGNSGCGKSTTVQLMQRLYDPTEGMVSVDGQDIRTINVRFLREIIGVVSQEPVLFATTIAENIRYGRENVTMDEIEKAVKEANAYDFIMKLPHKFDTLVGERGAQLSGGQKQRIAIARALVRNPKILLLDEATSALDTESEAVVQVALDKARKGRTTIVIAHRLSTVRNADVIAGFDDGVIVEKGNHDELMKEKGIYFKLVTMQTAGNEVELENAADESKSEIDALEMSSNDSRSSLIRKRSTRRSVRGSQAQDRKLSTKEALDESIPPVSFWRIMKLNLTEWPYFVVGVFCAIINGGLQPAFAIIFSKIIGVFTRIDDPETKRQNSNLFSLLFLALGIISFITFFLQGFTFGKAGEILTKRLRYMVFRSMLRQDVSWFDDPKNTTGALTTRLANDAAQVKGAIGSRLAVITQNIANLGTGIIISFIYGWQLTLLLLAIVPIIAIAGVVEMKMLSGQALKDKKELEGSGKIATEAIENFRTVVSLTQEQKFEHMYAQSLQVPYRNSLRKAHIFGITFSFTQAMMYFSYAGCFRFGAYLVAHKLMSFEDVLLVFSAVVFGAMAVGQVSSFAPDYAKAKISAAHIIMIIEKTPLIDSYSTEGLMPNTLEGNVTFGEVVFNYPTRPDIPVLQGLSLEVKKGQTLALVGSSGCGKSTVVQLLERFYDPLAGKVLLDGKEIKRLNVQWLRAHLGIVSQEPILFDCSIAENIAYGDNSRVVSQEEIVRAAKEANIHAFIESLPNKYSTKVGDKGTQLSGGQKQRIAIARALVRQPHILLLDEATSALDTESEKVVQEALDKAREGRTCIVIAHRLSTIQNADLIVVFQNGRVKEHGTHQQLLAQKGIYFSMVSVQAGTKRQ

[3] = molecular target: T2, Cytochrome P450 3A4 (Homo sapiens, UniProt P08684); assay: Inhibition of CYP3A4 (unknown origin) using Midazolam as substrate; type: ADME
T2 sequence (P08684 whole entry): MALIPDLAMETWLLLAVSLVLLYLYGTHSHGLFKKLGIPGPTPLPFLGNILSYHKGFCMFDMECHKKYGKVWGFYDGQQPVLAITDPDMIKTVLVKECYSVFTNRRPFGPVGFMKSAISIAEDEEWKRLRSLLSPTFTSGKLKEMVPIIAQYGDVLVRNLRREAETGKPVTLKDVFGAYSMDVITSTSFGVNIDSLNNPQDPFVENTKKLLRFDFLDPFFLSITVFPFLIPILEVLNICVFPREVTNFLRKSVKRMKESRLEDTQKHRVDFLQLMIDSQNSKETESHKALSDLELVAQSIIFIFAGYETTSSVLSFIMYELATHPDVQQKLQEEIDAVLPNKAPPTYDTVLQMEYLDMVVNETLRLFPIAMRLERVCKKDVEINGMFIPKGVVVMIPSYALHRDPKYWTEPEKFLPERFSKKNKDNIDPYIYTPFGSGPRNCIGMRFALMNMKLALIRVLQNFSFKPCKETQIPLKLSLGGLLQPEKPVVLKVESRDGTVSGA

[4] = Equilibrium solubility of compound in PBS at pH 7.4; type: physicochemical; conditions: PBS
[5] = molecular target: ATP-binding cassette sub-family C member 2 (Homo sapiens, UniProt Q92887); assay: Inhibition of MRP2 (unknown origin) ATPase activity
Chain of ATP-binding cassette sub-family C member 2 (Q92887 whole entry): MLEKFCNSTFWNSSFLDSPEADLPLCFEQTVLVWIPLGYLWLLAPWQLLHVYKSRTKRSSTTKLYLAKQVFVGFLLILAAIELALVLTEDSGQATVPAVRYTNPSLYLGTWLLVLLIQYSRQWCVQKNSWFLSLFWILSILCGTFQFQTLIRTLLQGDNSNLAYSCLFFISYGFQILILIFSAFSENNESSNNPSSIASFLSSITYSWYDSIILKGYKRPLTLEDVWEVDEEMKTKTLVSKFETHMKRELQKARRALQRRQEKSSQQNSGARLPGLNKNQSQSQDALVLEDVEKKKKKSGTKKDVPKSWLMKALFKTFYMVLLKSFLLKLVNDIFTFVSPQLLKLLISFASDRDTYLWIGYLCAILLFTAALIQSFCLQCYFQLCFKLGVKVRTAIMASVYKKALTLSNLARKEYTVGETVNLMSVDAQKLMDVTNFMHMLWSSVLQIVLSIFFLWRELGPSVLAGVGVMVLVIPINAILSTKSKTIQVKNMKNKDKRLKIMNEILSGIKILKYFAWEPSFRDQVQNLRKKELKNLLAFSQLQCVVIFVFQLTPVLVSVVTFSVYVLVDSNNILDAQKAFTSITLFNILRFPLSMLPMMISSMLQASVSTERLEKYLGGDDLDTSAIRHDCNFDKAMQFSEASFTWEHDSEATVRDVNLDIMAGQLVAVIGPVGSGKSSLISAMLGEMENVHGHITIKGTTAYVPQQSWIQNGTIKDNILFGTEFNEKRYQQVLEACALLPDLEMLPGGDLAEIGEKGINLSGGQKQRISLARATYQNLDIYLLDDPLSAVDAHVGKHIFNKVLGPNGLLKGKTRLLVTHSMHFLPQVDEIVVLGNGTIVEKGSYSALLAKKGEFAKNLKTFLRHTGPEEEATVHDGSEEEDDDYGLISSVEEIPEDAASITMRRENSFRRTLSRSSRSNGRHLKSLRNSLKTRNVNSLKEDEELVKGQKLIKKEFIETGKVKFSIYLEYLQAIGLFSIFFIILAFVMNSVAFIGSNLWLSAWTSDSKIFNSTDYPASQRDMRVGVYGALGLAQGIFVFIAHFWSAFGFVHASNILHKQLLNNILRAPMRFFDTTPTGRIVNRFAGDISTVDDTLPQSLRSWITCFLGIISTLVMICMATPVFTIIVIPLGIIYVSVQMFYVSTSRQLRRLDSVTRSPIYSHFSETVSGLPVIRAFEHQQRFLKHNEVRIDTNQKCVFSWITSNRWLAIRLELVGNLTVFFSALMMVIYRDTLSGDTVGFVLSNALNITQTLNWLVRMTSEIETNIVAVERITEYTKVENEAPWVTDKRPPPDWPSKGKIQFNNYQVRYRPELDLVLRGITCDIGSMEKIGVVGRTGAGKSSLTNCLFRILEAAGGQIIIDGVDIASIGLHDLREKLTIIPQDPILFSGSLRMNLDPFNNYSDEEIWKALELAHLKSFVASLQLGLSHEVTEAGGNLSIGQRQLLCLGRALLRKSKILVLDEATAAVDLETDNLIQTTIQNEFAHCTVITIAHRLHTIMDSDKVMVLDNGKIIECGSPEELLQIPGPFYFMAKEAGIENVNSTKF

[6] = Metabolic stability in human liver microsome assessed as half life; type: ADME; conditions: liver microsomes
[7] = Apparent permeability across basolateral to apical side in human Caco-2 cells assessed as drug recovery; type: ADME, cell-based; conditions: read-out: Drug recovery
[8] = molecular target: T1, P-gp (ABCB1); assay: Inhibition of P-gp in human Caco-2 cells at 10 uM in presence of paclitaxel relative to control; type: cell-based; conditions: Caco-2, probe paclitaxel
[9] = molecular target: T2, Cytochrome P450 3A4; assay: Inhibition of CYP3A4 in human liver using luciferin-IPA as substrate microsome preincubated with compound for 10 mins followed by NADPH addition and measured after 5 mins; type: ADME, microsomes
[10] = molecular target: T3, Cytochrome P450 2B6 (Homo sapiens, UniProt P20813); assay: Inhibition of CYP2B6 (unknown origin) using Bupropion as substrate; type: ADME
T3 sequence (P20813 whole entry): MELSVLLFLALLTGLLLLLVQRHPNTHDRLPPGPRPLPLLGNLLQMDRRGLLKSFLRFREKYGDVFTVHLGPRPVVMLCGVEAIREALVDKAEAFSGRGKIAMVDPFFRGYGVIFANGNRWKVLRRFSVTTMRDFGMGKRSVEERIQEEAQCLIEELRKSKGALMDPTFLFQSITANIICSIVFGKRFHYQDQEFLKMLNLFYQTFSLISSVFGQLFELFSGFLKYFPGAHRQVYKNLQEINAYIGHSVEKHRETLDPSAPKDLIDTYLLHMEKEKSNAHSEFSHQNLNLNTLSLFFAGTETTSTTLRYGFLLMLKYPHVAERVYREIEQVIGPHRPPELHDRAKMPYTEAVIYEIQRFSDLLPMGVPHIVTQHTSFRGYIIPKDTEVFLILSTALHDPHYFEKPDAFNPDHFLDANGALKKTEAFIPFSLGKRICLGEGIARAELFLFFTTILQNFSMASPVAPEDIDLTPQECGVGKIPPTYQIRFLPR

[11] = Metabolic stability in rat liver microsome assessed as intrinsic clearance; type: ADME; conditions: microsomes
[12] = molecular target: T4, ATP-dependent translocase ABCB1 (Homo sapiens, UniProt P08183); assay: Inhibition of P-gp (unknown origin) ATPase activity
T4 sequence (P08183 whole entry): as the sequence (P08183 whole entry) above

[13] = molecular target: T4, ATP-dependent translocase ABCB1; assay: Inhibition of P-gp in human MES-SA/Dx5 cells; type: cell-based
[14] = Apparent permeability across apical to basolateral side in human Caco-2 cells assessed as drug recovery; type: ADME, cell-based; conditions: read-out: Drug recovery
[15] = molecular target: T1, P-gp (ABCB1); assay: Inhibition of P-gp in human Caco-2 cells at 1 uM in presence of paclitaxel relative to control; type: cell-based; conditions: Caco-2, probe paclitaxel
[16] = Tlast in CD-1 mouse at 5 mg/kg, iv measured upto 8 hrs by LC-MS/MS analysis; type: ADME, organism-based; conditions: in vivo
[17] = Metabolic stability in mouse liver microsome assessed as intrinsic clearance; type: ADME; conditions: microsomes
[18] = Inhibition of CYP3A4 in rat liver using luciferin-IPA as substrate microsome preincubated with compound for 10 mins followed by NADPH addition and measured after 5 mins; type: ADME, microsomes
[19] = Metabolic stability in mouse liver microsome assessed as half life; type: ADME; conditions: liver microsomes
[20] = molecular target: T1, P-gp (ABCB1); assay: Inhibition of P-gp in human Caco-2 cells at 0.1 uM in presence of paclitaxel relative to control; type: cell-based; conditions: Caco-2, probe paclitaxel
[21] = molecular target: T2, Cytochrome P450 3A4; assay: Inhibition of CYP3A4 in human Hepatocyte using Luciferin-IPA as substrate; type: ADME, cell-based
[22] = Inhibition of MRP1 (unknown origin) ATPase activity; set-up: species or system Homo sapiens
[23] = C0 in CD-1 mouse at 5 mg/kg, iv measured upto 8 hrs by LC-MS/MS analysis; type: ADME, organism-based; conditions: in vivo
[24] = molecular target: T5, Cytochrome P450 2C8 (Homo sapiens, UniProt P10632); assay: Inhibition of CYP2C8 (unknown origin) using Amodiaquine as substrate; type: ADME
T5 sequence (P10632 whole entry): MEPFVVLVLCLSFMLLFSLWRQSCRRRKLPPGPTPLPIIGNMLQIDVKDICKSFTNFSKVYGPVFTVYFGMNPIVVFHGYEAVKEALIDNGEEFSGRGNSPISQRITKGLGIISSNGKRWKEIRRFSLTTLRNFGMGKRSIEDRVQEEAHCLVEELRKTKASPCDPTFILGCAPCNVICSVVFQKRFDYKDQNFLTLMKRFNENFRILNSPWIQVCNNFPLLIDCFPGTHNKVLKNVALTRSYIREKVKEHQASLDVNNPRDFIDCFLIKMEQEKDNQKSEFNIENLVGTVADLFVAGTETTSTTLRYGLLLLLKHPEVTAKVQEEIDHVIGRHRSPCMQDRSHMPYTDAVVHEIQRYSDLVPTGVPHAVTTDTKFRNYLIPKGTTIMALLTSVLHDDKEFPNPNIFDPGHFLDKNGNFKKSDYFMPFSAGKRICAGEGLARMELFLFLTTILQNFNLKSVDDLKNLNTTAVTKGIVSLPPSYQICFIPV

[25] = molecular target: T4, ATP-dependent translocase ABCB1; assay: Inhibition of P-gp in human Caco-2 cells in presence of paclitaxel; type: cell-based
[26] = Metabolic stability in human liver microsome assessed as intrinsic clearance; type: ADME; conditions: microsomes
[27] = Metabolic stability in monkey liver microsome assessed as intrinsic clearance; type: ADME, Macaca mulatta; conditions: rhesus monkey, microsomes
[28] = system: MES-SA/Dx5; assay: Cytotoxicity against human MES-SA/Dx5 cells at 1.28 uM incubated for 3 days by MTT assay relative to control; type: functional; conditions: time 3 day
[29] = molecular target: Cytochrome P450 2D6 (Homo sapiens, UniProt P10635); assay: Inhibition of CYP2D6 (unknown origin) using Bufuralol as substrate; type: ADME
Chain of Cytochrome P450 2D6 (P10635 whole entry): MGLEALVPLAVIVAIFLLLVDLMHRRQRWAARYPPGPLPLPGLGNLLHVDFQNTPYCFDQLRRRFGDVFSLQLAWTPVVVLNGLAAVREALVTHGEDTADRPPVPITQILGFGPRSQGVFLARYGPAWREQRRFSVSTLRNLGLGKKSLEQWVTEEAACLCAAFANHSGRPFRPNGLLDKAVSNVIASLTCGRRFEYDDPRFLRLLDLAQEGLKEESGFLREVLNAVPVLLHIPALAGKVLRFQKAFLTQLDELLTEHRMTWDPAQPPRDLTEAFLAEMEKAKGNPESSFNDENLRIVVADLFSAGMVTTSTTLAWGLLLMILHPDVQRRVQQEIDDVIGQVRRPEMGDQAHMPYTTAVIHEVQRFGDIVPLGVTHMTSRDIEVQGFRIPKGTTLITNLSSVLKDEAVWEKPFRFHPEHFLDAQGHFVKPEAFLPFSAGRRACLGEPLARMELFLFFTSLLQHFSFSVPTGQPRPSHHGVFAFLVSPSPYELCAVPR

[30] = Metabolic stability in rat liver microsome assessed as half life; type: ADME; conditions: liver microsomes

IC50 [1]: 89 nM | inhibition at 0.01 µM [2]: 54% | IC50 [3]: 140 nM | solubility thermodynamic [4]: 0.57 µM (≈ 0.39 µg/mL) | IC50 [5]: > 10000 nM | half-life [6]: 4.4 min | recovery [7]: 82% | inhibition at 10 µM [8]: 99% | IC50 [9]: 223 nM | IC50 [10]: 36000 nM | CLH [11]: 95 µL/min/mg | IC50 [12]: 21 nM | EC50 [13]: 28 nM | recovery [14]: 82% | inhibition at 1 µM [15]: 97% | Tlast [16]: 4.8 h | CLH [17]: 38 µL/min/mg | IC50 [18]: 296 nM | half-life [19]: 37 min | inhibition at 0.1 µM [20]: 89% | IC50 [21]: 1470 nM | IC50 [22]: > 10000 nM | C0 at 8 h [23]: 6540 ng/mL | IC50 [24]: 11000 nM | IC50 [25]: 9 nM | CLH [26]: 300 µL/min/mg | CLH [27]: 280 µL/min/mg | IC50 [29]: 69000 nM | half-life [30]: 15 min
Compound: COc1cc(NC(=O)c2cc(=O)c3ccccc3o2)c(C(=O)Nc2ccc(C3CCN(Cc4cccc(-n5ccnc5)c4)CC3)cc2)cc1OC
Activity [28]: 0%
